Six compounds from US20070054266A1, “Chemical sensor system” (NATIONAL INSTITUTE of ADVANCED INDUSTRIAL SCIENCE and …, priority 2002, published 2007) can be followed below.

Assay [1] relates to olfactory cells. Description: Responsiveness of 2,740 isolated olfactory cells to odor molecules (fura-2 calcium fluorescence). In kind it is cell-based, mouse. The settings on record: for number of olfactory cells responding, with higher sensitivity than others and to the same extent, to both pulegone and (−)menthone / number of olfactory cells responding, with the highest sensitivity and to the same extent, to both R(−)carvone and S(+)carvone / number of olfactory cells sensitively and selectively responding: of 2,740 olfactory cells investigated. The text has this:
(§1) It is reported that, in mice, the olfactory receptor is expressed is olfactory cells and detects and identifies odor molecules (Cell 96: 713-723 (1999) and the like). It is reported that there are four zones indicated by No. 1 to 4 in order from the dorsum to the ventral olfactory epithelium wherein olfactory cells are distributed and each olfactory receptor is limitedly expressed in any one of the four zones (Science 286 (5440): 706-711 (1999) and the like). As it is estimated by gene analysis estimates that there are about 1,000 types of olfactory receptors, the responsiveness to specific odor molecules of the olfactory cells sampled in statistically significant number from the four zones is equivalent. Therefore, in the present invention, the responsiveness of 2,740 olfactory cells, about 2.7 times as many as 1,000 specific types of cells, was investigated. It cannot be declared that the statistical significance is maintained for all zones, as the number of types of olfactory receptor included in each zone is not clear. […] As a result, 4 olfactory cells sensitively and selectively responding to R(−)carvone of spearmint odor of a typical olfactory source, 18 olfactory cells sensitively and selectively responding to S(+)carvone of caraway odor of another typical olfactory source, 3 olfactory cells responding, with higher sensitivity than others and to the same extent, to both pulegone and (−)menthone commonly having mint odor of another typical olfactory source, and 3 olfactory cells responding, with the highest sensitivity and to the same extent, to both R(−)carvone and S(+)carvone commonly having sweet odor of another typical olfactory source were found. Respectively, 2, 2, 1 and 1 type(s) of genes identified by RT-PCR determined from a single cell among such olfactory cells were found and described in the present invention.
The olfactory epithelium was quickly excised from a mouse euthanized by decapitation under anesthesia and divided into small pieces. These pieces were trypsinized to cleave intercellular junctions, and a sample of viable multiple mouse olfactory cells isolated from cells adhered to a cover slip by softly putting the treated pieces onto the cover slip taking care not to rupture them. Calcium-sensitive fluorescent dye fura-2 was intracellularly loaded on the sample, a solution of each odor molecule was administered, and the transient increase in intracellular calcium concentration triggered by the olfactory cells responding was detected by measuring and analysing the change in fura-2 fluorescence intensity within the cell using a microscope (Nikon), high-sensitive SIT video camera and image analysis device Argus-50 (Hamamatsu Photonics for both of the latter two), allowing the analysis individual cells response to specific odor molecules. Olfactory cell with a confirmed response were individually sampled with a micropipette containing 4 μl of cell lysis mix (1×MMLV buffer (GIBCO BRL), 0.5% NP-40, 290 U/ml RNA guard (Pharmacia), 300 U/ml Prime RNase inhibitor (Eppendorf), 10 μM each dNTP, 200 ng/ml pd(T)25-30) under microscopy and moved into a tube for PCR. After the tube was incubated at 65° C. for 1 minute, 0.5 μl of RT mixed solution containing 50 U of MMLV reverse transcriptase (GIBCO BRL) and 0.5 U of AMV reverse transcriptase (GIBCO BRL) was added to each tube, followed by reverse-transcription at 37° C. for 30 minutes and treatment at 65° C. for 10 minutes prior to the termination of reaction. To form polyA tails, 5 μl of 2×TdT buffer (GIBCO BRL), 1.5 mM DATP, and 3 U/μl Terminal deoxynucleotidyl transferase (GIBCO BRL) were added, followed by incubation at 37° C. for 15 minutes and treatment at 65° C. for 10 minutes prior to the termination of reaction. […]

The test system of assay [2] is olfactory receptor car-b85. Description: Odor response of olfactory cell expressing olfactory receptor car-b85 (fura-2 calcium fluorescence). In kind it is cell-based, mouse. The settings on record: car-b85, odor quality Mint; for Response at 10 μM: responders at 10 μM; for Response at 1 μM: responders at 1 μM with rank order. The text has this:
It is reported that, in mice, the olfactory receptor is expressed is olfactory cells and detects and identifies odor molecules (Cell 96: 713-723 (1999) and the like). It is reported that there are four zones indicated by No. 1 to 4 in order from the dorsum to the ventral olfactory epithelium wherein olfactory cells are distributed and each olfactory receptor is limitedly expressed in any one of the four zones (Science 286 (5440): 706-711 (1999) and the like). As it is estimated by gene analysis estimates that there are about 1,000 types of olfactory receptors, the responsiveness to specific odor molecules of the olfactory cells sampled in statistically significant number from the four zones is equivalent. Therefore, in the present invention, the responsiveness of 2,740 olfactory cells, about 2.7 times as many as 1,000 specific types of cells, was investigated. It cannot be declared that the statistical significance is maintained for all zones, as the number of types of olfactory receptor included in each zone is not clear. […] Respectively, 2, 2, 1 and 1 type(s) of genes identified by RT-PCR determined from a single cell among such olfactory cells were found and described in the present invention. The olfactory epithelium was quickly excised from a mouse euthanized by decapitation under anesthesia and divided into small pieces. These pieces were trypsinized to cleave intercellular junctions, and a sample of viable multiple mouse olfactory cells isolated from cells adhered to a cover slip by softly putting the treated pieces onto the cover slip taking care not to rupture them. Calcium-sensitive fluorescent dye fura-2 was intracellularly loaded on the sample, a solution of each odor molecule was administered, and the transient increase in intracellular calcium concentration triggered by the olfactory cells responding was detected by measuring and analysing the change in fura-2 fluorescence intensity within the cell using a microscope (Nikon), high-sensitive SIT video camera and image analysis device Argus-50 (Hamamatsu Photonics for both of the latter two), allowing the analysis individual cells response to specific odor molecules. […] The olfactory receptors with high sensitivity to specific odor qualities are shown as follows.

For assay [3], the system named is olfactory receptor car-c5. Description: Odor response of olfactory cell expressing olfactory receptor car-c5 (fura-2 calcium fluorescence). In kind it is cell-based, mouse. The settings on record: car-c5, odor quality Spearmint; for Response at 10 μM: responders at 10 μM. The text has this:
(§2) It is reported that, in mice, the olfactory receptor is expressed is olfactory cells and detects and identifies odor molecules (Cell 96: 713-723 (1999) and the like). It is reported that there are four zones indicated by No. 1 to 4 in order from the dorsum to the ventral olfactory epithelium wherein olfactory cells are distributed and each olfactory receptor is limitedly expressed in any one of the four zones (Science 286 (5440): 706-711 (1999) and the like). As it is estimated by gene analysis estimates that there are about 1,000 types of olfactory receptors, the responsiveness to specific odor molecules of the olfactory cells sampled in statistically significant number from the four zones is equivalent. Therefore, in the present invention, the responsiveness of 2,740 olfactory cells, about 2.7 times as many as 1,000 specific types of cells, was investigated. It cannot be declared that the statistical significance is maintained for all zones, as the number of types of olfactory receptor included in each zone is not clear. […] Respectively, 2, 2, 1 and 1 type(s) of genes identified by RT-PCR determined from a single cell among such olfactory cells were found and described in the present invention.
(§3) The olfactory epithelium was quickly excised from a mouse euthanized by decapitation under anesthesia and divided into small pieces. […] Calcium-sensitive fluorescent dye fura-2 was intracellularly loaded on the sample, a solution of each odor molecule was administered, and the transient increase in intracellular calcium concentration triggered by the olfactory cells responding was detected by measuring and analysing the change in fura-2 fluorescence intensity within the cell using a microscope (Nikon), high-sensitive SIT video camera and image analysis device Argus-50 (Hamamatsu Photonics for both of the latter two), allowing the analysis individual cells response to specific odor molecules. […]

Assay [4] relates to olfactory receptor car-n272. Briefly: Odor response of olfactory cell expressing olfactory receptor car-n272 (fura-2 calcium fluorescence). In kind it is cell-based, mouse. The settings on record: car-n272, odor quality Spearmint; for Response at 10 μM: odor molecules listed are those giving a response at 10 μM.
From the text: as §2, §3

The subject of assay [5] is olfactory receptor C257. Briefly: Response characteristics of olfactory receptor C257 expressed in cultured cell CHO. In kind it is cell-based. The settings on record: sensitivity one order of magnitude lower than in olfactory receptor cell (FIG. 16). The text has this: Next, in this Example, response characteristics of olfactory receptor C257 were studied. A) is the case wherein it is expressed in olfactory receptor cell, and B) is the case wherein it is expressed in cell established and cultured cell CHO. […] However, response to sCa was not apparent (FIG. 16). […] Regarding discrimination, characteristics of the olfactory receptor can be considered to be expressed, independent of the cell type. However, regarding sensitivity and response starting time, they are change with regards to all odor molecules depending on the cell type. Therefore, it is necessary to evaluate the stimulation quality, paying attention to this point.

In assay [6] the test system is olfactory receptor car-n266. Briefly: Odor response of olfactory cell expressing olfactory receptor car-n266 (fura-2 calcium fluorescence). Format: cell-based, mouse. Conditions: car-n266, Sweet odor; for Response at 1 μM: responders at 1 μM; for Response at 10 μM: responders at 10 μM.
From the text: as §1, §3

Assay [7] deals with olfactory receptor car-b161. Briefly: Odor response of olfactory cell expressing olfactory receptor car-b161 (fura-2 calcium fluorescence). In kind it is cell-based, mouse. Conditions: car-b161, odor quality Caraway; responders at 10 μM.
From the text: (§4) It is reported that, in mice, the olfactory receptor is expressed is olfactory cells and detects and identifies odor molecules (Cell 96: 713-723 (1999) and the like). It is reported that there are four zones indicated by No. 1 to 4 in order from the dorsum to the ventral olfactory epithelium wherein olfactory cells are distributed and each olfactory receptor is limitedly expressed in any one of the four zones (Science 286 (5440): 706-711 (1999) and the like). […] Respectively, 2, 2, 1 and 1 type(s) of genes identified by RT-PCR determined from a single cell among such olfactory cells were found and described in the present invention.
as §3

Assay [8] deals with olfactory receptor car-b153. Description: Odor response of olfactory cell expressing olfactory receptor car-b153 (fura-2 calcium fluorescence). In kind it is cell-based, mouse. The settings on record: car-b153, odor quality Caraway; responders at 10 μM.
From the text: as §4, §3

[9] abbreviates: of about 70-100 kinds of receptors.
[10] abbreviates: 1 μM, cells selective for the respective carvone (FIG. 8).

As to `C=C(C)C1CC=C(C)C(=O)C1` (stereo not drawn) [carvone], the “number of cells responding equally to both carvones at 1 μM” value in assay [1] (1 μM) is “three”. In assay [1] (corresponding to about 9.6% of about 1,000 kinds), the “kinds of olfactory receptors functioning to identify carvone” value is reported as 70-100 kinds. Further, the “olfactory cells responding to carvone, share of the total” value in assay [1] (of 2,740 olfactory cells) turned out to be 9.6%. The “number of olfactory cells responding to carvone” value in assay [1] (of 2,740 olfactory cells, carvone = both S(+)carvone and R(−)carvone) is given as 263. In assay [1] (setting [9]), the “fraction of the carvone-identifying olfactory receptors responding to both carvones equally with relatively high sensitivity” value is given as “about ⅖”.

In the case of `C=C(C)C1CCC(C)CC1O` (stereo not drawn) [ip, 2-isopropenyl-5-methylcyclohexanol], in assay [2], the “Response at 10 μM” value is reported as “ip”.

Consider `CC(C)[C@@H]1CC[C@@H](C)CC1=O` [mn, (2S,5R)-2-isopropyl-5-methylcyclohexanone], for which, in assay [2], the “Response at 1 μM” value is “pu, mn > sCa, rCa” and the “Response at 10 μM” value is “mn”. In assay [1], the “number of olfactory cells responding, with higher sensitivity than others and to the same extent, to both pulegone and (−)menthone” value came to 3 olfactory cells.

For the compound `CC(C)=C1CC[C@@H](C)CC1=O` [pu, (R)-p-menth-4(8)-en-3-one], in assay [2], the “Response at 1 μM” value is on record as “pu, mn > sCa, rCa” and the “Response at 10 μM” value is reported as “pu”. Moreover, the “number of olfactory cells responding, with higher sensitivity than others and to the same extent, to both pulegone and (−)menthone” value in assay [1] stood at 3 olfactory cells.

Consider `C=C(C)[C@@H]1CC=C(C)C(=O)C1` [rCa, R(−)-5-isopropenyl-2-methyl-2-cyclohexenon], for which the “Response at 1 μM” value in assay [2] is given as “pu, mn > sCa, rCa”; in assay [3] (responders at 1 μM), “rCa”; in assay [4] (odor molecules listed are those giving a response at 1 μM), “rCa”; in assay [6], “rCa”. Besides, the “Response at 10 μM” value in assay [2], in assay [3], in assay [4] and in assay [6] was “rCa” in each case. Further, the “response of olfactory receptor C257 when expressed in CHO” value in assay [5] was “high sensitivity could be confirmed”. Moreover, in assay [1] (setting [10]), the “number of selective cells responding at 1 μM” value is “four”. Besides, in assay [1], the “number of olfactory cells responding, with the highest sensitivity and to the same extent, to both R(−)carvone and S(+)carvone” value is listed as 3 olfactory cells. The “number of olfactory cells sensitively and selectively responding” value in assay [1] amounted to 4 olfactory cells. Besides, in assay [1] (setting [9]), the “fraction of the carvone-identifying olfactory receptors responding with relatively high sensitivity” value is listed as “about ⅕”.

Turning to `C=C(C)[C@H]1CC=C(C)C(=O)C1` [sCa, S(+)-5-isopropenyl-2-methyl-2-cyclohexenon], the “Response at 1 μM” value is on record as “pu, mn > sCa, rCa” in assay [2] and “sCa” in assay [6]. The “Response at 10 μM” value in assay [2], in assay [3], in assay [4], in assay [6], in assay [7] and in assay [8] was “sCa” each time. In assay [5], the “response of olfactory receptor C257 when expressed in CHO” value is listed as “not apparent”. The “number of selective cells responding at 1 μM” value in assay [1] (setting [10]) was “two”. The “number of selective cells responding at 10 μM” value in assay [1] (10 μM, cells selective for the respective carvone (FIG. 8)) is listed as “seventeen”. In addition, in assay [1], the “number of olfactory cells responding, with the highest sensitivity and to the same extent, to both R(−)carvone and S(+)carvone” value amounted to 3 olfactory cells. Besides, in assay [1], the “number of olfactory cells sensitively and selectively responding” value is listed as 18 olfactory cells. Also, the “fraction of the carvone-identifying olfactory receptors responding with relatively high sensitivity” value in assay [1] (setting [9]) was “about ⅕”.
